Several values for one entry are separate records, joined by “and”; a condition that tells them apart may be missing. Equal entries are not always repeated. Where two headings read alike, the source gives them in different places.
Columns and labels:
CqsS F166L = assay: CqsS-dependent repression of qrr4-gfp, CqsS F166L (Fig 7C); format: cell-based, Vibrio cholerae; conditions: Treatment 1uM; CqsS mutant F166L
WT CqsS [1] = tested on: T1, WT CqsS; format: biochemical; conditions: for % Total Phosphorylation: CqsS WT
T1 construct: made in house; host or cells: E. coli C43 (DE3), pET21b; used as inverted membrane vesicles

CqsS [2] = biological target: T2, CqsS (Vibrio cholerae serotype O1, UniProt Q9KM66); assay: cell-based; conditions: for Light production: strain WN1102; for RLU: Strain WN1102
T2 construct: endogenous in cells; host or cells: V. cholerae WN1102 (ΔcqsA ΔluxQ/pBB1), derived from C6706str2

CqsS F162A = assay: CqsS-dependent repression of qrr4-gfp, CqsS F162A (Fig 7C); format: cell-based, Vibrio cholerae; conditions: Treatment 1uM; CqsS mutant F162A
WT CqsS [3] = tested on: T1, WT CqsS; format: cell-based; conditions: Treatment 1uM
CqsS D618N = tested on: T3, CqsS D618N; assay: CqsS D618N autophosphorylation in inverted membrane vesicles, 32P (Fig 7A); format: biochemical, Vibrio cholerae
T3 construct: made in house; host or cells: E. coli C43 (DE3), pET21b; used as inverted membrane vesicles

CqsS C170Y = assay: CqsS-dependent repression of qrr4-gfp, CqsS C170Y (Fig 7C); format: cell-based, Vibrio cholerae; conditions: Treatment 1uM; CqsS mutant C170Y
[4] = tested on: QS-controlled luxCDABE operon; format: cell-based; conditions: for RLU: PluxPQ-CqsS::3XFLAG LuxS-CqsA-
qrr4 = format: cell-based
hapA = format: cell-based
CqsS [5] = format: cell-based; conditions: for CqsS Dimers / Relative dimers, Final experimental replicates / Relative dimers (CqsS, normalized to WT Ave): LuxS-CqsA-, AI-2 1 μM, CAI-1 5 μM; for CqsS Dimers / Relative dimers (CqsS, normalized to WT Ave): single replicates
[6] = tested on: QS-controlled luxCDABE operon; format: cell-based; conditions: for RLU: Strain AH371

With CCn1nnnc1NCc1ccc(N2CCCC2)cc1 [#1] the Qrr4-GFP/OD600 (CqsS F166L) was 1372627 and 1402431 and 1341231, the “% Total Phosphorylation” value (WT CqsS [1]; Agonist 0.1 uM) was 100.558% and 115.09% and 103.96% and 101.973% and the “% Total Phosphorylation” value (WT CqsS [1]; Agonist 0.5 uM) was 68.5791% and 92.92% and 82.55% and 69.9852%. For the same compound, the “% Total Phosphorylation” value (WT CqsS [1]; Agonist 1 uM) was 45.0881% and 63.83% and 58.45% and 44.3406%, the “% Total Phosphorylation” value (WT CqsS [1]; Agonist 2.5 uM) was 26.3754% and 21.56% and 17.64% and 21.3677% and the “% Total Phosphorylation” value (WT CqsS [1]; Agonist 5 uM) was 11.5601% and 8.94% and 7.65% and 9.2554%. The “% Total Phosphorylation” value (WT CqsS [1]; Agonist 10 uM) was 6.306% and 5.77% and 3.8% and 4.014%, the “% Total Phosphorylation” value (WT CqsS [1]; Agonist 20 uM) was 3.59% and 2.41% and 2.332% and the “% Total Phosphorylation” value (WT CqsS [1]; Agonist 30 uM) was 2.867% and 2.2% and 1.97% and 1.073%. For the same compound, the “% Total Phosphorylation” value (WT CqsS [1]; Agonist 100 uM) was 1.456% and 1.61% and 2.02% and 0.9371%, the “% Total Phosphorylation” value (WT CqsS [1]; Agonist 200 uM) was 0.8391% and 0.1631% and the “inhibition of WT CqsS autophosphorylation” value (WT CqsS [1]; saturating concentration (Fig 7B)) was 99%. For the same compound, the Light production (CqsS [2]; Agonist 0.0119209 nM) was 14433 RLU and 16087 RLU and 17053 RLU, the Light production (CqsS [2]; Agonist 0.0476837 nM) was 23351 RLU and 21676 RLU and 24048 RLU and the Light production (CqsS [2]; Agonist 0.190735 nM) was 38851 RLU and 41951 RLU and 36905 RLU. For the same compound, the Light production (CqsS [2]; Agonist 0.762939 nM) was 87702 RLU and 80982 RLU and 79024 RLU, the Light production (CqsS [2]; Agonist 3.05176 nM) was 716543 RLU and 579623 RLU and 556962 RLU and the Light production (CqsS [2]; Agonist 12.207 nM) was 18832900 RLU and 18957270 RLU and 17907730 RLU. For the same compound, the Light production (CqsS [2]; Agonist 48.8281 nM) was 80742000 RLU and 84094230 RLU and 86837650 RLU, the Light production (CqsS [2]; Agonist 195.312 nM) was 115208300 RLU and 122904000 RLU and 129103600 RLU and the Light production (CqsS [2]; Agonist 781.25 nM) was 116783100 RLU and 133656800 RLU and 131724500 RLU. For the same compound, the Light production (CqsS [2]; Agonist 3125 nM) was 109482900 RLU and 129285000 RLU and 130316000 RLU, the Light production (CqsS [2]; Agonist 12500 nM) was 93560740 RLU and 110559800 RLU and 116375500 RLU and the Light production (CqsS [2]; Agonist 50000 nM) was 59185800 RLU and 66981220 RLU and 65547470 RLU. The “fold more potent than CAI-1” value (CqsS [2]; EC50 comparison) was ~ 10 fold, the RLU (CqsS [2]; agonist 0.0119209 nM) was 1.70E+04 RLU and 1.69E+04 RLU and 1.12E+04 RLU and the RLU (CqsS [2]; agonist 0.0476837 nM) was 2.55E+04 RLU and 2.29E+04 RLU and 2.60E+04 RLU. The RLU (CqsS [2]; agonist 0.190735 nM) was 4.47E+04 RLU and 4.12E+04 RLU and 4.19E+04 RLU, the RLU (CqsS [2]; agonist 0.762939 nM) was 6.42E+04 RLU and 6.05E+04 RLU and 7.48E+04 RLU and the RLU (CqsS [2]; agonist 3.05176 nM) was 2.06E+05 RLU and 2.32E+05 RLU and 3.12E+05 RLU. The RLU (CqsS [2]; agonist 12.207 nM) was 1.01E+07 RLU and 9.84E+06 RLU and 1.23E+07 RLU, the RLU (CqsS [2]; agonist 48.8281 nM) was 9.23E+07 RLU and 8.51E+07 RLU and 1.09E+08 RLU and the RLU (CqsS [2]; agonist 195.312 nM) was 1.65E+08 RLU and 1.58E+08 RLU and 1.92E+08 RLU. The RLU (CqsS [2]; agonist 781.25 nM) was 1.94E+08 RLU and 2.03E+08 RLU and 2.28E+08 RLU, the RLU (CqsS [2]; agonist 3125 nM) was 2.05E+08 RLU and 2.11E+08 RLU and 2.23E+08 RLU and the RLU (CqsS [2]; agonist 12500 nM) was 1.88E+08 RLU and 1.94E+08 RLU and 1.93E+08 RLU. The RLU (CqsS [2]; agonist 50000 nM) was 1.33E+08 RLU and 1.29E+08 RLU, the EC50 (CqsS [2]; light production, reporter strain WN1102, 4 h at 30 °C) was 4 nM and the Qrr4-GFP/OD600 (CqsS F162A) was 15523160 and 14988240 and 15125460. The Qrr4-GFP/OD600 (WT CqsS [3]) was 1321723 and 1319147 and 1356464, the “% Total Phosphorylation” value (CqsS D618N; agonist 0.32 uM) was 64.1931% and 55.8048% and 58.0668% and 77.924% and 56.4082% and the “% Total Phosphorylation” value (CqsS D618N; agonist 10 uM) was 1.9% and 2.181% and 3.3092% and 3.5805%. For the same compound, the Qrr4-GFP/OD600 (CqsS C170Y) was 18211780 and 19558860 and 23085030.

Work on C[C@]12OC[C@H](O)[C@@]1(O)O[B-](O)(O)O2 [AI-2, (2S, 4S)-2-methyl-2,3,3,4-tetrahydroxytetrahydrofuran borate] yielded an RLU ([4]; OD600 0.0532) of 1.35E+07 RLU, an RLU ([4]; OD600 0.2928) of 9.01E+07 RLU and an RLU ([4]; OD600 0.826) of 1.12E+09 RLU. It also gave an RLU ([4]; OD600 1.094) of 3.16E+09 RLU, an RLU ([4]; OD600 1.626) of 2.09E+10 RLU and an RLU ([4]; OD600 2.281) of 2.23E+10 RLU. For the same compound, the “QS response when cqsS is under the luxPQ promoter” value ([4]; S9B Fig) was “caused premature induction of QS”, the “RLU relative to Average WT” value (qrr4; LuxS-CqsA- strain + autoinducer, Average WT 115335416.84) was 29.34 and 29.68 and 31.98 and the “RLU, average per biological replicate (Totals)” value (qrr4; LuxS-CqsA- strain + autoinducer, Rep 1-3) was 3.38E+09 RLU and 3.42E+09 RLU and 3.69E+09 RLU. For the same compound, the “reduction of qrr4-luxCDABE expression” value (qrr4; saturating autoinducer, ΔcqsA ΔluxS mutant) was 2 fold, the “increase in hapA expression” value (hapA; LuxQ+ AI-2- strain (ΔcqsS ΔcqsR ΔvpsS ΔluxS)) was 27 fold and the “increase in hapA expression” value (hapA; ΔcqsA ΔluxS strain, HCD) was 4 fold. The “Relative dimers, Average of 111816 reps” value (CqsS [5]; HCD) was 0.8076 and 0.9392, the “CqsS Dimers” value (CqsS [5]; HCD (OD600 = 2.0)) was 120.316 and 41.5193 and 39.7812 and 190.837 and 226.59 and 73.4627 and 88.226 and 103.067 and the “Relative dimers, Final experimental replicates” value (CqsS [5]; HCD) was 0.8076 and 0.9392 and 0.977 and 1.14 and 0.4129 and 0.3956. For the same compound, the “Relative dimers (CqsS, normalized to WT Ave)” value (CqsS [5]; HCD) was 0.7384 and 0.8768 and 0.8534 and 1.025 and 0.977 and 1.14 and 0.4129 and 0.3956, the “Relative dimers, Average of 111816 reps” value (CqsS [5]; LCD) was 1.105 and 0.8147 and the “CqsS Dimers” value (CqsS [5]; LCD (OD600 = 0.2)) was 53.516 and 13.7214 and 12.1436 and 82.1482 and 72.8907 and 15.3978 and 28.2649 and 41.282. For the same compound, the “Relative dimers, Final experimental replicates” value (CqsS [5]; LCD) was 1.105 and 0.8147 and 1.157 and 1.5 and 0.8624 and 0.7633, the “Relative dimers (CqsS, normalized to WT Ave)” value (CqsS [5]; LCD) was 1.171 and 1.039 and 0.5746 and 1.055 and 1.157 and 1.5 and 0.8624 and 0.7633 and the CqsS protein levels (CqsS [5]; ΔcqsA ΔluxS mutant, LCD and HCD) was “increased CqsS protein levels to nearly that present in the WT”. For the same compound, the Light production ([6]; LuxS-CqsA- +AI-2 1 μM, OD600 0.0275) was 5854546 RLU, the Light production ([6]; LuxS-CqsA- +AI-2 1 μM, OD600 0.0589) was 5025467 RLU and the Light production ([6]; LuxS-CqsA- +AI-2 1 μM, OD600 0.2147) was 1280857 RLU. It also gave a Light production ([6]; LuxS-CqsA- +AI-2 1 μM, OD600 0.4541) of 1704470 RLU, a Light production ([6]; LuxS-CqsA- +AI-2 1 μM, OD600 1.201) of 1856786 RLU and a Light production ([6]; LuxS-CqsA- +AI-2 1 μM, OD600 1.481) of 34976370 RLU. It also gave a Light production ([6]; LuxS-CqsA- +AI-2 1 μM, OD600 1.867) of 25388320 RLU, a Light production ([6]; LuxS-CqsA- +AI-2 1 μM, OD600 3.776) of 12473520 RLU and a Light production ([6]; LuxS-CqsA-, AI-2 1 μM, CAI-1 5 μM, OD600 0.005) of 108432 RLU. The RLU ([6]; agonist 0.0476837 nM) was 2.35E+03 RLU and 4.30E+03 RLU and 4.28E+03 RLU, the RLU ([6]; agonist 0.762939 nM) was 2.47E+03 RLU and 4.79E+03 RLU and 4.30E+03 RLU and the RLU ([6]; agonist 3.05176 nM) was 2.44E+03 RLU and 2.42E+03 RLU and 2.17E+03 RLU. The RLU ([6]; agonist 12.207 nM) was 2.38E+03 RLU and 4.73E+03 RLU and 4.30E+03 RLU, the RLU ([6]; agonist 48.8281 nM) was 9.41E+03 RLU and 7.14E+03 RLU and 8.89E+03 RLU and the RLU ([6]; agonist 195.312 nM) was 2.21E+04 RLU and 3.23E+04 RLU and 2.62E+04 RLU. For the same compound, the RLU ([6]; agonist 781.25 nM) was 6.41E+04 RLU and 4.85E+04 RLU and 5.29E+04 RLU, the RLU ([6]; agonist 3125 nM) was 6.25E+04 RLU and 6.51E+04 RLU and 5.68E+04 RLU and the RLU ([6]; agonist 12500 nM) was 7.03E+04 RLU and 7.29E+04 RLU and 6.20E+04 RLU. The “increase in light production” value ([6]; saturating autoinducer, HCD, vs untreated ΔcqsA ΔluxS) was 100 fold.

Reference: article PMC5467912, “Asymmetric regulation of quorum-sensing receptors drives autoinducer-specific gene expression programs in Vibrio cholerae” (PLoS Genetics, 2017)
